Literature values as cited in patent US8821944B1, “Polymorph compositions, methods of making, and uses thereof” (Edge Therapeutics, Inc., priority 2013, dated 2014).

Key:
[1] = at +25° C. and +37° C.
[2] = at +25° C. and +37° C.; remark: listed apart in the source

For `COCCOC(=O)C1=C(C)NC(C)=C(C(=O)OC(C)C)C1c1cccc([N+](=O)[O-])c1` (centres unmarked) [Form II], the “solubility compared to Form I” value [1] is listed as “lower solubility” and the “stability compared to Form I” value [2] is listed as “higher stability”.
